Consider 3 compounds from patent US20070134165A1 (Altana Pharma AG, priority 2004, published 2007).

The structures appear in SMILES notation.

One data set deals with patients with asthma. Put plainly: Double-blind, randomized, parallel group clinical study, ciclesonide vs budesonide once daily in the evening for 12 weeks. In kind it is in vivo. The note with it: for FEV1 / FVC / PEF / morning PEF: ex smokers, ITT, LSmeans. The text has this:
Another objective was to provide information on the safety and tolerability of ciclesonide.

Data set [1] deals with glucocorticosteroid receptor. The note with it: ratio versus ciclesonide; cited from earlier work.
The conditions of data set [2]: cited from earlier work.
The next data set relates to asthma patients. The note with it: ex-smokers, ciclesonide versus budesonide; cited from earlier work.
Setting [3] is: end of 12 weeks, CIC 200 μg or BUD 400 μg once daily in the evening.

As to `CCCC1O[C@@H]2C[C@H]3[C@@H]4CCC5=CC(=O)C=C[C@]5(C)[C@H]4[C@@H](O)C[C@]3(C)[C@]2(C(=O)CO)O1` (stereo partly shown) [budesonide], in the data set with patients with asthma (setting [3]), the FEV1 is reported as 2.602 L, the FVC is 3.385 L, the PEF is on record as 357 L/min and the morning PEF is 391 L/min. Also, in the data set with patients with asthma (start of treatment), the FEV1 turned out to be 2.339 L, the FVC is 3.146 L, the PEF was determined as 310 L/min and the morning PEF came out at 370 L/min.

Take `C[C@]12C=CC(=O)C=C1CC[C@@H]1[C@@H]2[C@@H](O)C[C@@]2(C)[C@H]1C[C@H]1O[C@@H](C3CCCCC3)O[C@]12C(=O)CO` (mixture of isomers) [desisobutyryl-ciclesonide, 16α,17-(22R,S)-cyclohexylmethylenedioxy-11β,21-dihydroxypregna-1,4-diene-3,20-dione]: the “affinity to the glucocorticosteroid receptor relative to ciclesonide” value in data set [1] is on record as “approximately 100 times higher”.

As to `CC(C)C(=O)OCC(=O)[C@@]12O[C@H](C3CCCCC3)O[C@@H]1C[C@H]1[C@@H]3CCC4=CC(=O)C=C[C@]4(C)[C@H]3[C@@H](O)C[C@@]12C` [Ciclesonide, [11β,16α(R)]-16,17-[(Cyclohexylmethylene)bis(oxy)]-11-hydroxy-21-(2-methyl-1-oxo-propoxy)pregna-1,4-diene-3,20-dione], in the data set with patients with asthma ((ex-)smokers subgroup, after 12 weeks of treatment), the “change in FEV1, subgroup analysis” value was “statistically significant increases”. In the data set on patients with asthma (setting [3]), this compound returned an FEV1 of 2.773 L, an FVC of 3.604 L, a PEF of 391 L/min and a morning PEF of 416 L/min. Also, in the data set on patients with asthma (start of treatment), the FEV1 is 2.336 L, the FVC is 3.146 L, the PEF stood at 310 L/min and the morning PEF amounted to 370 L/min. In the data set with patients with asthma (smoking asthmatic patients), the “improvement in lung function compared to treatment with budesonide” value is “superior improvements in lung function”. For the same compound, in data set [2] (in vivo), the “concentration of the drug in the lungs” value was “high”, the “metabolism by liver oxidases” value is “very high”, the plasma half-life result is given as “low” and the systemic activity result was “low”. Moreover, in data set [2] (oral), the “absorption after oral administration” value is “only moderately absorbed”. In addition, the “subgroup analysis of FEV1” value with asthma patients is listed as “trend for superiority of ciclesonide over budesonide”.
